Measurements taken from ChEMBL document CHEMBL5725551, “Inhibitors of the renal outer medullary potassium channel” (2017).

The compounds below were run against T1, ATP-sensitive inward rectifier potassium channel 1 (Homo sapiens, UniProt P48048) (assay: Thallium Flux Assay: A Thallium Flux Assay was performed on each of the final product compounds of the Examples. This assay has been described previously; see, e.g., PCT Published Application WO 2013/062900.).
T1 sequence (P48048 whole entry): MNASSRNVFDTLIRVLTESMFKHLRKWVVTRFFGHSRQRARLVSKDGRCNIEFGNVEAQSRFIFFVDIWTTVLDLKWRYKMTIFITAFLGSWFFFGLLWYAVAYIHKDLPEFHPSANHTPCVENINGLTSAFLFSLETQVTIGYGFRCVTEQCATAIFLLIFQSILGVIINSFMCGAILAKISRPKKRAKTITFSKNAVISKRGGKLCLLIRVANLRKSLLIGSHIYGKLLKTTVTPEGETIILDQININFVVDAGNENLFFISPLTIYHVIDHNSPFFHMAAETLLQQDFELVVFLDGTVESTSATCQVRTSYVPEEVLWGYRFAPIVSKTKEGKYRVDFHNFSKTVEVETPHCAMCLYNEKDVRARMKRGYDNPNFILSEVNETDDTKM

Row | SMILES | IC50 [nM]
1 | C[C@H]1C[C@]2(CC[C@@H](NCc3cnc(-n4cnnn4)s3)CC2)C(=O)N1C1=CC(=O)OC1 | 24
2 | CC1=C(N2C(=O)[C@]3(CC[C@@H](NCc4cnc(-n5cnnn5)cn4)CC3)C[C@@H]2C)COC1=O | 420
3 | CC1=C(N2C(=O)[C@]3(CC[C@H](N(C)Cc4cnc(-n5cnnn5)cn4)CC3)C[C@H]2C)COC1=O | 200
4 | C[C@@H]1C[C@]2(CC[C@@H](NCc3ccc(-n4cnnn4)nn3)CC2)C(=O)N1C1=CC(=O)OC1 | 110
5 | CC1=C(N2CC[C@]3(CC[C@@H](N(C)Cc4ccc(-n5ncnn5)nc4)CC3)C2=O)COC1=O | 640
6 | CC1C[C@]2(CC[C@@H](NCc3cnc(-n4cnnn4)cn3)CC2)C(=O)N1C1=CC(=O)OC1 (stereo not given in full) | 46
7 | CC1=C(N2CC[C@]3(CC[C@@H](N(C)Cc4cnc(-n5cnnn5)s4)CC3)C2=O)COC1=O | 30
8 | CC1=C(N2C(=O)[C@]3(CC[C@H](N(C)Cc4ccc(-n5cnnn5)nn4)CC3)C[C@H]2C)COC1=O | 200
9 | C[C@@H]1C[C@]2(CC[C@@H](NCc3cnc(-n4cnnn4)s3)CC2)C(=O)N1C1=CC(=O)OC1 | 190
10 | C[C@H]1C[C@]2(CC[C@H](NCc3ccc(-n4cnnn4)nn3)CC2)C(=O)N1C1=CC(=O)OC1 | 8.4
11 | CC1=C(N2C(=O)[C@]3(CC[C@H](N(C)Cc4ccc(-n5cnnn5)nn4)CC3)C[C@@H]2C)COC1=O | 200
12 | CC1=C(N2CC[C@]3(CC[C@@H](NCc4cnc(-n5cnnn5)s4)CC3)C2=O)COC1=O | 92
13 | C[C@@H]1C[C@]2(CC[C@@H](N(C)Cc3ccc(-n4cnnn4)nn3)CC2)C(=O)N1C1=CC(=O)OC1 | 270
14 | CC1=C(N2CCC3(CCC(NCc4ccc5c(c4C)Cn4nnnc4-5)CC3)C2=O)COC1=O (stereo not given) | 19
15 | CC1C[C@]2(CC[C@@H](NCc3ccc(-n4cnnn4)nn3)CC2)C(=O)N1C1=CC(=O)OC1 (stereo not given in full) | 28
16 | CC1=C(N2CC[C@]3(CC[C@@H](N(Cc4ccc(-n5cnnn5)nn4)Cc4ncco4)CC3)C2=O)COC1=O | 210
17 | C[C@H]1C[C@]2(CC[C@@H](NCc3ccc(-n4cnnn4)nn3)CC2)C(=O)N1C1=CC(=O)OC1 | 30
18 | CC1=C(N2CC[C@]3(CC[C@@H](N[C@@H](C)c4ccc(-n5cnnn5)nn4)CC3)C2=O)COC1=O | 320
19 | CC1=C(N2C(=O)[C@]3(CC[C@@H](N(C)Cc4cnc(-n5cnnn5)cn4)CC3)C[C@@H]2C)COC1=O | 310
20 | CC1=C(N2CC[C@]3(CC[C@@H](NC(C)c4cnc(-n5cnnn5)cn4)CC3)C2=O)COC1=O (stereo not given in full) | 170
21 | CC1=C(N2C(=O)[C@]3(CC[C@H](NCc4cnc(-n5cnnn5)cn4)CC3)C[C@H]2C)COC1=O | 65
22 | CC1=C(N2C(=O)[C@]3(CC[C@H](NCc4ccc(-n5cnnn5)nn4)CC3)C[C@H]2C)COC1=O | 23
23 | CC1=C(N2C(=O)[C@]3(CC[C@H](NCc4ccc(-n5cnnn5)nn4)CC3)C[C@@H]2C)COC1=O | 40
24 | CC1=C(N2CC[C@]3(CC[C@@H](N(CCO)Cc4ccc(-n5cnnn5)nn4)CC3)C2=O)COC1=O | 150
25 | CC1=C(N2CC[C@]3(CC[C@@H](NCc4cc(C)c(-n5cnnn5)nn4)CC3)C2=O)COC1=O | 8.4
